From US12209075B2, “Pyridine-sulfonamide derivatives as sodium channel inhibitors” (GENENTECH, INC., priority 2018, dated 2025)

How the values were obtained:
hNav1.7 [1] = biological target: T1, hNav1.7 (Homo sapiens (Human), UniProt Q15858); assay: Tritiated compound binding to membranes from cells expressing hNav1.7 and the β1 subunit (Nav1.7 LBA EVO); settings: competitive binding vs [3H]compound, membranes with hNav1.7 and β1 subunit
Method in brief: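 Membranes from cells expressing hNav1.7 plus β1 were incubated at room temperature with [3H]-labelled Nav1.7 inhibitor and test compound in 100 mM NaCl, 20 mM Tris pH 7.4, 0.01% BSA. Two protocols: 100 pM radioligand for 18 h, or 300 pM for 3 h. Non-specific binding was set with 1 μM unlabelled compound; filtration/scintillation gave IC50 by 4-parameter fit.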
Target sequence in this assay (Q15858 whole entry, looked up): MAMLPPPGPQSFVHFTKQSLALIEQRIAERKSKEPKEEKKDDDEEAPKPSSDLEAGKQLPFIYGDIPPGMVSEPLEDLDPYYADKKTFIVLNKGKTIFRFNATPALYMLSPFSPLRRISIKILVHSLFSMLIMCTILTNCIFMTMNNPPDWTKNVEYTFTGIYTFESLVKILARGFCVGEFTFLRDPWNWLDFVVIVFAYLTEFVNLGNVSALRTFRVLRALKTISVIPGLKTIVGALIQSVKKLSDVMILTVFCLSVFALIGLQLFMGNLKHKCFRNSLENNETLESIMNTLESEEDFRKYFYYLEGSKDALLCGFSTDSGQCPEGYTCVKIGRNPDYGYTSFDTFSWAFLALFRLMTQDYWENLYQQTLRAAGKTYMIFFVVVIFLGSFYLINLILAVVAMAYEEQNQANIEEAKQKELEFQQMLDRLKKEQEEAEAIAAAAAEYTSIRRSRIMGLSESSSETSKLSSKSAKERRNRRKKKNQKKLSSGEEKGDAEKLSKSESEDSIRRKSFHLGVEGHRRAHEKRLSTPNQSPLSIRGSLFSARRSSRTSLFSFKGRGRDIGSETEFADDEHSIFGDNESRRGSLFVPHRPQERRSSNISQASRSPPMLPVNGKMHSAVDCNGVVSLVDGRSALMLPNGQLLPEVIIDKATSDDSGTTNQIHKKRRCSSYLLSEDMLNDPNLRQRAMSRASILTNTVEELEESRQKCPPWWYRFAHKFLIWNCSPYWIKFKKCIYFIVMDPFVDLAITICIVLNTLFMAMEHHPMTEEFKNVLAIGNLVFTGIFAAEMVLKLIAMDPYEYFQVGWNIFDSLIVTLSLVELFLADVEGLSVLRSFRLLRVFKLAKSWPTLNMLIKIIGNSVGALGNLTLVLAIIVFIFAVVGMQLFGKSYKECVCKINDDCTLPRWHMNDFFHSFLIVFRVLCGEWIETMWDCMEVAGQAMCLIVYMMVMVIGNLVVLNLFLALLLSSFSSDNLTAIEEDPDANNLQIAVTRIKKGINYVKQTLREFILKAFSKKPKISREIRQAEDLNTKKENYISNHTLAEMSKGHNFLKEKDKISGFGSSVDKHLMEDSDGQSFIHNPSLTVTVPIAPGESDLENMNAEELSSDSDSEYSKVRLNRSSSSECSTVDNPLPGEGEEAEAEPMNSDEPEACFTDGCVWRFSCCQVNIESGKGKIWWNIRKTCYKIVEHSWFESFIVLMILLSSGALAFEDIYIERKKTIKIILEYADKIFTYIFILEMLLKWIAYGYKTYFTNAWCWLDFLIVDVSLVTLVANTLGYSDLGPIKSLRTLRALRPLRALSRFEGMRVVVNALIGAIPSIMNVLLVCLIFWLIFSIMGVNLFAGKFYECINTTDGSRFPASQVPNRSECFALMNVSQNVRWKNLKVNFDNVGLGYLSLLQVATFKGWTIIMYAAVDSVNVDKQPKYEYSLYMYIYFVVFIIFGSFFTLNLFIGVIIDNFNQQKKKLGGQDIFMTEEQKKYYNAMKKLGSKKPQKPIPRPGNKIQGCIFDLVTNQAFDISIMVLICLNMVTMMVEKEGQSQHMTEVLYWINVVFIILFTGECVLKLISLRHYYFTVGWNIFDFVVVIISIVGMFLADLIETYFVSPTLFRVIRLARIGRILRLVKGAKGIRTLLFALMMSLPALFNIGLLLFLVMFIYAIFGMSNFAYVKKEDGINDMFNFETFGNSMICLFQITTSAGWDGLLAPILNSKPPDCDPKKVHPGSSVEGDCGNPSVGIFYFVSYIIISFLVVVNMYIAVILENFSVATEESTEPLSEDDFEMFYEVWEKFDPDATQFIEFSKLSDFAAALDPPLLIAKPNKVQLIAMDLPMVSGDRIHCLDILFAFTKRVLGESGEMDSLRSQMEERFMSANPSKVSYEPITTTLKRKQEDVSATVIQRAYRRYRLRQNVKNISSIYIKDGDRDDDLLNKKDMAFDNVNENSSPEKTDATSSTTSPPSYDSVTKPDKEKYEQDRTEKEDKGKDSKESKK
Target sequence in this assay (Q07699 whole entry partner, looked up): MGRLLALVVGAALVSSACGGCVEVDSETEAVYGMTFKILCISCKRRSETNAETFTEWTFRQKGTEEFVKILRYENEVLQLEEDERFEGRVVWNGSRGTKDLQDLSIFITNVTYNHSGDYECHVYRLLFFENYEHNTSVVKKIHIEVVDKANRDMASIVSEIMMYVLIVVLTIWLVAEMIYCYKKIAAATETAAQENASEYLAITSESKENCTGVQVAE

hNav1.7 [2] = biological target: T1, hNav1.7; assay: Patch voltage clamp electrophysiology assay (EP), Syncropatch 384PE, CHO cells expressing Nav1.7; type: cell-based; settings: holding potential −50 mV, 7.5 min compound incubation; read-out: EP_SP hNav1.7 EVO IC50
Excerpt: Example 64c. Electrophysiological Assay (EP) (In Vitro Assay)
Patch voltage clamp electrophysiology allows for the direct measurement and quantification of block of voltage-gated sodium channels (NaV's), and allows the determination of the time- and voltage-dependence of block which has been interpreted as differential binding to the resting, open, and inactivated states of the sodium channel (Hille, B., Journal of General Physiology (1977), 69: 497-515).
The following voltage clamp electrophysiology studies are performed on representative compounds using cells heterologously expressing Nav1.7 or Nav1.5 channels. cDNAs for Nav1.7 (NM 002977) and Nav1.5 (AC137587) are stably expressed in Chinese Hamstr Ovary (CHO) cells and CHL (Chinese Hamster Lung) cells respectively. Sodium currents are measured in the whole-cell configuration using Syncropatch 384PE ([…], Germany). 1NPC®-384 chips with custom medium resistance and single hole mode are used. Internal solution consists of (in mM): […], 10CsCl, 20EGTA, and 10Hepes (pH adjusted to 7.2); and external solution contains (in mM): 60NMDG, 80NaCl, 4 KCl, 1MgCl2, 2CaCl2, 2D-Glucose monohydrate, 10Hepes (pH adjusted to 7.4 with NaOH).
After system flushing, testing compounds are dissolved in external solution containing 0.1% Pluronic F-127. The chip is moved into the measuring head and the instrument primes the chip with external and internal solutions. 10 μl cells are added to the chip from a cell hotel, and a negative pressure of −50 mBar is applied to form a seal. Following treatment with seal enhancer solution and wash-off with external solution, negative pressure of −250 mbar is applied for 1 second to achieve the whole-cell configuration, followed by three washing steps in external solution. 20 μl of compounds is added to 40 μl in each well (1:3 dilution of compounds), and after mixing, 20 μl is removed so the volume is retained at 40 ul. After approximately 13 minutes recordings, 20 μl/well of 2 uM TTX, or 333 uM Tetracaine (for Nav1.5) is added to achieve full block.
For voltage protocol, an holding potential of −50 mV is applied during the whole experiment. A depolarizing step is applied to −10 mV for 10 ms, followed by a hyperpolarization step to −150 mV for 20 ms to allow channel recovery from inactivation. A second depolarizing step is applied from −150 mV to −10 mV for 10 ms, where currents are measured to derive blocking effects of compounds. Inhibition is determined based on 7.5 min of compound incubation.
Target sequence in this assay (Q15858 other isoform, or with tags, fused parts or gaps): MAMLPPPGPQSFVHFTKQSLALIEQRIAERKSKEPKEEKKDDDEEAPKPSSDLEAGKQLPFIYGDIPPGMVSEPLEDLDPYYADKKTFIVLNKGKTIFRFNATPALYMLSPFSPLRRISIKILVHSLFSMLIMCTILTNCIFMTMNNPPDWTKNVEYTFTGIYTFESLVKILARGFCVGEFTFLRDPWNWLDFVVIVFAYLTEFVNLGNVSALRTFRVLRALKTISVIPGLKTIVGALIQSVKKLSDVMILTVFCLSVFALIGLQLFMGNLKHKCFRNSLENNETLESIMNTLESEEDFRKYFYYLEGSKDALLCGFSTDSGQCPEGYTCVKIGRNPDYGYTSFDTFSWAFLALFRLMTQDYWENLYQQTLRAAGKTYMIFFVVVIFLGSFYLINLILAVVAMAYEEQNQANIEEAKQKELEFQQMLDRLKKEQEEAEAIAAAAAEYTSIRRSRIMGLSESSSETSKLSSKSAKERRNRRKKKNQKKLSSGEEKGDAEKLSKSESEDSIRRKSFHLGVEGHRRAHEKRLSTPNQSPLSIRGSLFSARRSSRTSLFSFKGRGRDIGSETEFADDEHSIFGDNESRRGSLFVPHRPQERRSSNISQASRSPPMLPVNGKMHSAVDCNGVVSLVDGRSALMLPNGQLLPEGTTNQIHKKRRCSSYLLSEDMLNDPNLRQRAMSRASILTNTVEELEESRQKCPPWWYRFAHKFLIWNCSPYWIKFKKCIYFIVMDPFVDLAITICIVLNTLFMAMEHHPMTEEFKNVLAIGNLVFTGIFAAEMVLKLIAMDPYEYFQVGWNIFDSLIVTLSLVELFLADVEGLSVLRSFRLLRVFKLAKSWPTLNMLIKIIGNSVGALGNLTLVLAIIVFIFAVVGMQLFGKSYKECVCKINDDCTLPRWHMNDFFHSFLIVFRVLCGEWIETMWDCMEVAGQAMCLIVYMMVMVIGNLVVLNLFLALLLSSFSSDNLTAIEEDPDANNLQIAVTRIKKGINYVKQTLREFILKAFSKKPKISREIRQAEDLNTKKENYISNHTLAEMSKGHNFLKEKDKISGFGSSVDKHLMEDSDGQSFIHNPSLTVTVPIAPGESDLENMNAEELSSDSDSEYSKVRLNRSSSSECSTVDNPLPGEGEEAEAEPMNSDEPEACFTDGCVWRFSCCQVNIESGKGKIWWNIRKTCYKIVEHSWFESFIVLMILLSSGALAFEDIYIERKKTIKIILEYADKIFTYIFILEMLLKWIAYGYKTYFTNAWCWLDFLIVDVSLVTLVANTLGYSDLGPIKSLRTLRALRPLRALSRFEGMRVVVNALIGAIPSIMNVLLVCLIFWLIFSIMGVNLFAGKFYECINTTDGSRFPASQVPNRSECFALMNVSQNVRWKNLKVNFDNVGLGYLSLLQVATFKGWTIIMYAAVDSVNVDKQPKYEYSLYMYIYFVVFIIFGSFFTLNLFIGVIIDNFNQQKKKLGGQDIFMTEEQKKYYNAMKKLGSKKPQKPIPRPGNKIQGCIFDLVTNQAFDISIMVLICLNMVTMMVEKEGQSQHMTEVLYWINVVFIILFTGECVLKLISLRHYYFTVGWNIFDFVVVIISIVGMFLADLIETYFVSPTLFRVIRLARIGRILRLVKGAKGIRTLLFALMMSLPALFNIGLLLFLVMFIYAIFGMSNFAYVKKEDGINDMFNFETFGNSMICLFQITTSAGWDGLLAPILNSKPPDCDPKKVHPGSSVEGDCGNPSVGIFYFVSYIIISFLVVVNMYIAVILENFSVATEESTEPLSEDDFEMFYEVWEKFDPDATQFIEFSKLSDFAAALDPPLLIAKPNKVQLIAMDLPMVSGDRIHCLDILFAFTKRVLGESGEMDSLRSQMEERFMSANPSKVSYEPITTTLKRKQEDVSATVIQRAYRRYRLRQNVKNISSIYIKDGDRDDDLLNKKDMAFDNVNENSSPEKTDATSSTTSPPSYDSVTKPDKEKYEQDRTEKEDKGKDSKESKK

## Cc1nc(O[C@H]2CC[C@H](c3ccc(Cl)c(Cl)c3)C[C@@H]2N(C)C)ccc1S(=O)(=O)Nc1ccncn1 [Example 37, 6-(((1S,2S,4S)-4-(3,4-dichlorophenyl)-2-(dimethylamino)cyclohexyl)oxy)-2-methyl-N-(pyrimidin-4-yl)pyridine-3-sulfonamide]
hNav1.7 [1]
  IC50: 1.36 nM
hNav1.7 [2]
  IC50: 0.301 nM
